Data published in patent US10111843B2, “Methods for treating brain injury” (HOUGH EAR INSTITUTE, priority 2011, dated 2018).

Key:
[1] = blood-brain barrier permeability by contrast-enhanced T1-weighted MRI; format: in vivo, rat; details: given as 300 mg/kg NAC plus 300 mg/kg HPN-07 i.p., MRI seven days after initial drug administration
Experimental: Male Long-Evans pigmented rats (with body weights between 360 and 400 g, Harlan Laboratories, Indianapolis, Ind.) were injected intraperitoneally with a combination of 300 mg/kg of NAC plus 300 mg/kg of HPN-07, which were both dissolved in 5 ml/kg of physiological saline solution. […] Drug or saline was administered once on the first day and then twice a day for the following two days.
Seven days after the initial drug administration magnetic resonance imaging (MRI) was used to detect the disruption of the blood-brain barrier (BBB). Contrast enhancement noted on post-contrast T1-weighted MRI after injection of contrast agent (Magnevist=GdDTPA) is indicative of blood-brain barrier disruption. The hyper intensity on the T1-weighted images is resulting from leakage of the gadolinium based contrast agent injected at the baseline.
The MRI parameters and image scale factor were kept constant for all T1-weighted images. The images were evaluated both visually and by region-of-interest (ROI) measurement. ROT measurements were obtained at the time-points (before and after injection of contrast material on T1-weighted images) brain.

doublecortin = doublecortin immunostaining of hippocampus and entorhinal cortex after noise exposure; format: in vivo, chinchilla; details: for level of doublecortin staining in the entorhinal cortex: HPN-07 300 mg/kg i.p.
Experimental: In this Example, three-5 year old chinchilla were freedom divided into 3 groups (6 chinchilla at each time point in each group). Chinchilla in noise exposure and noise plus treatment groups were exposed to 105 dB SPL Octave band noise centered at 4 kHz for 6 hours. Chinchilla in the noise plus treatment group were received HPN-07 treatment (300 mg/kg, i.p) started 4 hours after noise exposure, and then twice a day for the following 2 days. Chinchilla in the normal control and the noise exposed only groups were received carrier solutions (i.p.). Chinchilla were euthanized and perfused with 4% paraformaldehyde in PBS 21 days and 6 months after noise exposure. Brains were dissected out and post-fixed in the fixative for one week. The brains were Cryosected at 30 μm. Goat anti-doublecortin (1:100) was used to label neural precursor cells. Images were taken from CA1 regions of hippocampus and the entorhinal cortex with a light microscope. Doublecortin staining reflects neurogenerosis in the brain after neuron damage and death after noise exposure.

[2] = stated as known; cited from earlier work

Molecule | blood-brain barrier permeability (% change in ROI signal intensity after Magnevist) [1] | blood-brain barrier permeability (% change in ROI signal intensity after Magnevist) ([1]; listed as 2,4-disulfonyl PBN) | level of doublecortin staining in the entorhinal cortex (doublecortin; 6 months post noise exposure) | density of doublecortin staining in the hippocampus (doublecortin; 6 months post noise exposure, HPN-07 300 mg/kg i.p. from 4 hours after noise) | level of doublecortin staining in the entorhinal cortex (doublecortin; 21 days post noise exposure) | blood-brain barrier permeability [2]
2,4-disulfonyl α-phenyl tertiary butyl nitrone [HPN-07] | effectively increases blood-brain barrier permeability | unexpectedly increases blood brain permeability | decreases the level of doubtecortin staining | comparable to the control subjects | decreases the level of doubtecortin staining | 
CC(=O)N[C@@H](CS)C(=O)O [NAC, N-acetylcysteine] |  |  |  |  |  | known to not increase blood-brain barrier permeability
